Data as given in patent publication US20240270762A1, “PENICILLIN-BINDING PROTEIN INHIBITORS” (priority 2021, published 2024).
pEC50: −log10 of the molar value.

These compounds were tested against T1, A. baumannii PBP1a (Acinetobacter baumannii, UniProt A0ABX6CK30) (assay: Bocillin-FL competition binding via gel filtration, A. baumannii PBP1a). Details: competition binding assay using Bocillin-FL via gel filtration; read-out: A. baumannii PBP1a Potency.
T1 sequence (A0ABX6CK30 1-851): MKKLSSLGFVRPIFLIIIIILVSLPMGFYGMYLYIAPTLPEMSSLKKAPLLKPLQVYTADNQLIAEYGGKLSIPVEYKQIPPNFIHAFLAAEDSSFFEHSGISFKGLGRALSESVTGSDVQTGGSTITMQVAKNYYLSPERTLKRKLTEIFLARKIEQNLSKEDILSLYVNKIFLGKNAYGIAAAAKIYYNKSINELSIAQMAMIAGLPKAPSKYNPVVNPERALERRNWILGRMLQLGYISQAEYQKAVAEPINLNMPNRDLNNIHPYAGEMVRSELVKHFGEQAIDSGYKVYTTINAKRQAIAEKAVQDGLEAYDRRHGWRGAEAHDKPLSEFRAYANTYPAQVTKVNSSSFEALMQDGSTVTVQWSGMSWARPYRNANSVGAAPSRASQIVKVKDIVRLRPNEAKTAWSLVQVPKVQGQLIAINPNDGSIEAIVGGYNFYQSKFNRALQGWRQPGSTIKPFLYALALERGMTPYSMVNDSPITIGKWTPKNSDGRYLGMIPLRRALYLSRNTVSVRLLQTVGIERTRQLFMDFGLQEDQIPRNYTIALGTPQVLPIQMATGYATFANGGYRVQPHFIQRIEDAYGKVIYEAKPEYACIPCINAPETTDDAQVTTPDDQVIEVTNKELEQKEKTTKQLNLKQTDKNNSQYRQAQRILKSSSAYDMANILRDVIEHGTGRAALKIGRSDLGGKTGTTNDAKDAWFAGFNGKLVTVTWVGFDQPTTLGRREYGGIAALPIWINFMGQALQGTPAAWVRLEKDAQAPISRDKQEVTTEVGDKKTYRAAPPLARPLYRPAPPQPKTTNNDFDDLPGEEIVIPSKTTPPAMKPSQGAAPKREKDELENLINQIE
Method in brief: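 Competitive equilibrium binding; reporter Bocillin-FL. PBP + inhibitor (titration) pre-incubated → Bocillin-FL, 15 min → gel filtration → fluorescence. EC50 from Hill fit of fraction bound vs [inhibitor].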

Row | SMILES | pEC50
1 | O=C(O)c1c(F)ccc2c1OB(O)[C@@H](NC(=O)[C@H](NC(=O)N1CCN(Cc3ccc(O)c(O)c3Cl)C(=O)C1=O)c1cccc(P(=O)(O)O)c1)C2 (single isomer, unassigned) [Example 163] | > 5.00
2 | O=C(NCCS(=O)(=O)N1CCN(C(=O)N[C@@H](C(=O)N[C@H]2Cc3ccc(F)c(C(=O)O)c3OB2O)c2ccc(P(=O)(O)O)cc2)C1=O)c1ccc(O)c(O)c1Cl (single isomer, unassigned) [Example 168] | 3.60 to 4.30
3 | O=C(O)c1c(F)ccc2c1OB(O)[C@@H](NC(=O)[C@H](NC(=O)N1CCN(C3CCN(C(=O)Nc4ccc(O)cc4)CC3)C(=O)C1=O)c1cc(F)c(O)c(O)c1Cl)C2 (single isomer, unassigned) [Example 426] | 4.30 to 5.00
4 | O=C(O)c1c(F)ccc2c1OB(O)[C@@H](NC(=O)[C@H](NC(=O)N1CCN(C3CCN(C(=O)c4cccc(O)c4)CC3)C1=O)c1cc(F)c(O)c(O)c1Cl)C2 (single isomer, unassigned) [Example 430] | > 5.00
5 | O=C(O)c1c(F)ccc2c1OB(O)[C@@H](NC(=O)[C@H](NC(=O)N1CCN(C3CCN(C(=O)c4cccc(O)c4F)CC3)C1=O)c1cc(F)c(O)c(O)c1Cl)C2 (single isomer, unassigned) [Example 431] | > 5.00
6 | O=C(O)c1c(F)ccc2c1OB(O)[C@@H](NC(=O)[C@H](NC(=O)N1CCN(C3CCN(C(=O)c4cccc(O)c4Cl)CC3)C1=O)c1cc(F)c(O)c(O)c1Cl)C2 (single isomer, unassigned) [Example 432] | > 5.00
7 | O=C(O)c1c(F)ccc2c1OB(O)[C@@H](NC(=O)[C@H](NC(=O)N1CCN(C3CCN(C(=O)c4cc(O)ccc4F)CC3)C1=O)c1cc(F)c(O)c(O)c1Cl)C2 (single isomer, unassigned) [Example 433] | > 5.00
8 | O=C(O)c1c(F)ccc2c1OB(O)[C@@H](NC(=O)[C@H](NC(=O)N1CCN(C3CCN(C(=O)c4cc(O)ccc4Cl)CC3)C1=O)c1cc(F)c(O)c(O)c1Cl)C2 (single isomer, unassigned) [Example 434] | > 5.00
9 | O=C(O)c1c(F)ccc2c1OB(O)[C@@H](NC(=O)[C@H](NC(=O)N1CCN(C3CCN(C(=O)c4ccc(F)c(O)c4)CC3)C1=O)c1cc(F)c(O)c(O)c1Cl)C2 (single isomer, unassigned) [Example 435] | > 5.00
10 | O=C(O)c1c(F)ccc2c1OB(O)[C@@H](NC(=O)[C@H](NC(=O)N1CCN(C3CCN(C(=O)c4cc(O)cc(F)c4)CC3)C1=O)c1cc(F)c(O)c(O)c1Cl)C2 (single isomer, unassigned) [Example 436] | > 5.00
11 | O=C(O)c1c(F)ccc2c1OB(O)[C@@H](NC(=O)[C@H](NC(=O)N1CCN(C3CCN(C(=O)c4ccc(F)c(O)c4F)CC3)C1=O)c1cc(F)c(O)c(O)c1Cl)C2 (single isomer, unassigned) [Example 437] | > 5.00
12 | O=C(O)c1c(F)ccc2c1OB(O)[C@@H](NC(=O)[C@H](NC(=O)N1CCN(C3CCN(C(=O)c4c(F)ccc(O)c4F)CC3)C1=O)c1cc(F)c(O)c(O)c1Cl)C2 (single isomer, unassigned) [Example 439] | 4.30 to 5.00
13 | O=C(O)c1c(F)ccc2c1OB(O)[C@@H](NC(=O)[C@H](NC(=O)N1CCN(C3CCN(C(=O)c4c(F)ccc(O)c4Cl)CC3)C1=O)c1cc(F)c(O)c(O)c1Cl)C2 (single isomer, unassigned) [Example 440] | > 5.00
14 | O=C(O)c1c(F)ccc2c1OB(O)[C@@H](NC(=O)[C@H](NC(=O)N1CCN(C3CCN(C(=O)c4cc(F)c(F)c(O)c4F)CC3)C1=O)c1cc(F)c(O)c(O)c1Cl)C2 (single isomer, unassigned) [Example 441] | > 5.00
15 | O=C(O)c1c(F)ccc2c1OB(O)[C@@H](NC(=O)[C@H](NC(=O)N1CCN(C3CCN(C(=O)c4cc(O)cc(O)c4)CC3)C1=O)c1cc(F)c(O)c(O)c1Cl)C2 (single isomer, unassigned) [Example 442] | > 5.00
16 | O=C(O)c1c(F)ccc2c1OB(O)[C@@H](NC(=O)[C@H](NC(=O)N1CCN(C3CCN(C(=O)c4cc(O)c(F)c(O)c4)CC3)C1=O)c1cc(F)c(O)c(O)c1Cl)C2 (single isomer, unassigned) [Example 443] | > 5.00
